In PubChem BioAssay AID248 (DTP/NCI, 2004):
Values joined by “and” are separate entries in the source; they are usually repeats but may differ in a detail not shown here. Equal entries are not always repeated. Inconclusive results and toxic doses are left out. No stated cut-off is given here; in the data, active means T/C of 150% or more; inactive means T/C below 125%.

Test system: L1210 leukemia ip in BDF1 mice, survival T/C
Experiment: NCI In Vivo Anticancer Drug Screen. Data for tumor model L1210 Leukemia (intraperitoneal) in B6D2F1 (BDF1) mice
Conditions: higher = longer survival
Procedure, shortened: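 Survival endpoint. Drug-treated group vs vehicle group, expressed as T divided by C. Tumor passaged by transplantation.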

[1] = endpoint: mean survival time, dose: 100.0 mg/kg/injection, schedule: Q01DX001 (ip), vehicle: saline
[2] = endpoint: mean survival time, dose: 200.0 mg/kg/injection, schedule: Q01DX001 (ip), vehicle: saline
[3] = endpoint: mean survival time, dose: 400.0 mg/kg/injection, schedule: Q01DX001 (ip), vehicle: saline
[4] = endpoint: mean survival time, dose: 100.0 mg/kg/injection, schedule: Q04DX002 (ip), vehicle: Klucel (hydroxypropylcellulose) (HPC)
[5] = endpoint: mean survival time, dose: 100.0 mg/kg/injection, schedule: Q01DX009 (ip), vehicle: saline
[6] = endpoint: mean survival time, dose: 100.0 mg/kg/injection, schedule: Q04DX003 (ip), vehicle: saline
[7] = endpoint: mean survival time, dose: 200.0 mg/kg/injection, schedule: Q01DX009 (ip), vehicle: saline
[8] = endpoint: mean survival time, dose: 200.0 mg/kg/injection, schedule: Q04DX003 (ip), vehicle: saline
[9] = endpoint: mean survival time, dose: 400.0 mg/kg/injection, schedule: Q01DX009 (ip), vehicle: saline
[10] = endpoint: mean survival time, dose: 400.0 mg/kg/injection, schedule: Q04DX003 (ip), vehicle: saline
[11] = endpoint: mean survival time, dose: 200.0 mg/kg/injection, schedule: Q04DX002 (ip), vehicle: Klucel (hydroxypropylcellulose) (HPC)
[12] = endpoint: mean survival time, dose: 400.0 mg/kg/injection, schedule: Q04DX002 (ip), vehicle: Klucel (hydroxypropylcellulose) (HPC)
[13] = endpoint: mean survival time, dose: 100.0 mg/kg/injection, schedule: Q01DX009 (ip), vehicle: saline with Tween-80
[14] = endpoint: mean survival time, dose: 100.0 mg/kg/injection, schedule: Q04DX003 (ip), vehicle: saline with Tween-80
[15] = endpoint: mean survival time, dose: 100.0 mg/kg/injection, schedule: Q04DX003 (ip), vehicle: Klucel (hydroxypropylcellulose) (HPC)
[16] = endpoint: mean survival time, dose: 200.0 mg/kg/injection, schedule: Q04DX003 (ip), vehicle: Klucel (hydroxypropylcellulose) (HPC)
[17] = endpoint: mean survival time, dose: 400.0 mg/kg/injection, schedule: Q04DX003 (ip), vehicle: Klucel (hydroxypropylcellulose) (HPC)
[18] = endpoint: mean survival time, dose: 200.0 mg/kg/injection, schedule: Q04DX003 (ip), vehicle: saline with Tween-80
[19] = endpoint: mean survival time, dose: 400.0 mg/kg/injection, schedule: Q04DX003 (ip), vehicle: saline with Tween-80
[20] = endpoint: mean survival time, dose: 25.0 mg/kg/injection, schedule: Q01DX009 (ip), vehicle: saline

Measured: T/C

O=C1NCCc2cc3c(cc21)OCO3
inactive: endpoint: mean survival time, dose: 25.0 mg/kg/injection, schedule: Q04DX002 (ip), vehicle: saline 97 % of control | endpoint: mean survival time, dose: 50.0 mg/kg/injection, schedule: Q04DX002 (ip), vehicle: saline 106 % of control | endpoint: mean survival time, dose: 100.0 mg/kg/injection, schedule: Q04DX002 (ip), vehicle: saline 103 % of control

CC(C)c1nc2c(c(=O)n(C)c(=O)n2C)n1C
inactive: endpoint: mean survival time, dose: 50.0 mg/kg/injection, schedule: Q01DX001 (ip), vehicle: saline 102 % of control | [1] 96 % of control | [2] 96 % of control | [3] 108 % of control

Cc1ccc(C(=O)CCN2CCOCC2)c(C)c1
inactive: [1] 102 % of control | [2] 96 % of control | [3] 96 % of control

Nc1nc(N)c(CCCc2ccccc2)c(N)n1
inactive: [4] 87 % of control

CC(=O)OCC(C)OC(C)=O (stereo unspecified)
inactive: [5] 98 % of control | [6] 106 % of control | [7] 95 % of control | [8] 97 % of control | [9] 92 % of control | [10] 97 % of control

CCOC(=O)C(CC(C)C)NC(=O)c1ccc(C)c2c1Nc1c(c(C)c3oc(=O)c(C)nc3c1C(=O)NC(CC(C)C)C(=O)OCC)O2 (stereo unspecified)
inactive: endpoint: mean survival time, dose: 75.0 mg/kg/injection, schedule: Q01DX001 (ip), vehicle: other 91 % of control | endpoint: mean survival time, dose: 150.0 mg/kg/injection, schedule: Q01DX001 (ip), vehicle: other 86 % of control | endpoint: mean survival time, dose: 300.0 mg/kg/injection, schedule: Q01DX001 (ip), vehicle: other 88 % of control

CCOC(=O)NCc1cnccn1
inactive: [6] 100 % of control and 102 % of control | [8] 95 % of control and 100 % of control | [10] 104 % of control

COc1ccc(OC)c2[nH]c(-c3ccccc3)cc12
inactive: [4] 96 % of control | [11] 105 % of control | [12] 93 % of control

C=CCOCC(O)CNCC(O)COCC=C (stereo unspecified)
inactive: endpoint: mean survival time, dose: 25.0 mg/kg/injection, schedule: Q01DX009 (ip), vehicle: saline with Tween-80 98 % of control | endpoint: mean survival time, dose: 25.0 mg/kg/injection, schedule: Q04DX003 (ip), vehicle: saline with Tween-80 100 % of control | endpoint: mean survival time, dose: 50.0 mg/kg/injection, schedule: Q01DX009 (ip), vehicle: saline with Tween-80 101 % of control | endpoint: mean survival time, dose: 50.0 mg/kg/injection, schedule: Q04DX003 (ip), vehicle: saline with Tween-80 92 % of control | [13] 101 % of control | [14] 102 % of control

COC(=O)C1=CO[C@@H](C)[C@@H]2Cn3ccc4c5ccccc5nc-4c3C[C@H]12
inactive: [1] 109 % of control | [3] 95 % of control

S=P(Oc1ccccc1)(N1CC1)N1CC1
inactive: endpoint: mean survival time, dose: 25.0 mg/kg/injection, schedule: Q01DX009 (ip), vehicle: acetone 98 % of control | endpoint: mean survival time, dose: 50.0 mg/kg/injection, schedule: Q01DX009 (ip), vehicle: acetone 98 % of control | endpoint: mean survival time, dose: 50.0 mg/kg/injection, schedule: Q04DX003 (ip), vehicle: saline 100 % of control | [1] 87 % of control | endpoint: mean survival time, dose: 100.0 mg/kg/injection, schedule: Q01DX009 (ip), vehicle: acetone 93 % of control | [6] 92 % of control | endpoint: mean survival time, dose: 150.0 mg/kg/injection, schedule: Q01DX009 (ip), vehicle: saline 87 % of control | [2] 94 % of control | endpoint: mean survival time, dose: 225.0 mg/kg/injection, schedule: Q01DX009 (ip), vehicle: saline 87 % of control

O=C(Cn1cnc2c(=S)nc[nH]c21)Oc1ccc([N+](=O)[O-])cc1
inactive: [13] 98 % of control | [15] 96 % of control | [16] 105 % of control | [17] 94 % of control

COC(=O)C(CSCSC)NC(=O)/C=C/c1cc(OC)ccc1OC (stereo unspecified)
inactive: [13] 87 % of control | [14] 94 % of control | endpoint: mean survival time, dose: 200.0 mg/kg/injection, schedule: Q01DX009 (ip), vehicle: saline with Tween-80 93 % of control | [18] 88 % of control | endpoint: mean survival time, dose: 400.0 mg/kg/injection, schedule: Q01DX009 (ip), vehicle: saline with Tween-80 93 % of control | [19] 94 % of control

OCCN1CCN(CCCN2c3ccccc3Sc3cccnc32)CC1
inactive: endpoint: mean survival time, dose: 4.68 mg/kg/injection, schedule: Q01DX009 (ip), vehicle: saline 94 % of control | endpoint: mean survival time, dose: 9.37 mg/kg/injection, schedule: Q01DX009 (ip), vehicle: saline 104 % of control | endpoint: mean survival time, dose: 18.75 mg/kg/injection, schedule: Q01DX009 (ip), vehicle: saline 113 % of control | endpoint: mean survival time, dose: 20.0 mg/kg/injection, schedule: Q01DX009 (ip), vehicle: saline 111 % of control | endpoint: mean survival time, dose: 37.5 mg/kg/injection, schedule: Q01DX009 (ip), vehicle: saline 115 % of control | endpoint: mean survival time, dose: 40.0 mg/kg/injection, schedule: Q01DX009 (ip), vehicle: saline 112 % of control | endpoint: mean survival time, dose: 75.0 mg/kg/injection, schedule: Q01DX009 (ip), vehicle: saline 107 % of control | endpoint: median survival time, dose: 20.0 mg/kg/injection, schedule: Q01DX009 (ip), vehicle: saline 113 % of control | endpoint: median survival time, dose: 40.0 mg/kg/injection, schedule: Q01DX009 (ip), vehicle: saline 112 % of control

CCC12CCC(=O)C=C1CCCC2=O (stereo unspecified)
inactive: [20] 100 % of control | endpoint: mean survival time, dose: 50.0 mg/kg/injection, schedule: Q01DX009 (ip), vehicle: saline 97 % of control | [5] 90 % of control

N#CN=C([S-])[S-].N#CN=C([S-])[S-].[Cu]
inactive: endpoint: mean survival time, dose: 6.25 mg/kg/injection, schedule: Q01DX009 (ip), vehicle: saline 102 % of control | endpoint: mean survival time, dose: 12.5 mg/kg/injection, schedule: Q01DX009 (ip), vehicle: saline 96 % of control | [20] 93 % of control

OC(c1ccccc1)C1(O)C2CCC1C2 (stereo unspecified)
inactive: endpoint: mean survival time, dose: 75.0 mg/kg/injection, schedule: Q04DX002 (ip), vehicle: Klucel (hydroxypropylcellulose) (HPC) 96 % of control | endpoint: mean survival time, dose: 150.0 mg/kg/injection, schedule: Q04DX002 (ip), vehicle: Klucel (hydroxypropylcellulose) (HPC) 104 % of control | endpoint: mean survival time, dose: 300.0 mg/kg/injection, schedule: Q04DX002 (ip), vehicle: Klucel (hydroxypropylcellulose) (HPC) 96 % of control

CCCCCC(C)NCC(C)O (stereo unspecified)
inactive: endpoint: mean survival time, dose: 75.0 mg/kg/injection, schedule: Q01DX001 (ip), vehicle: acid diluted with saline 100 % of control

COC(OC)c1nc(N)[nH]c(=O)c1Cc1cccc2ccccc12
inactive: [4] 97 % of control | [11] 86 % of control | [12] 105 % of control

Clc1ccc(N(c2ccccc2)c2ccccc2)cc1
inactive: endpoint: mean survival time, dose: 100.0 mg/kg/injection, schedule: Q01DX001 (ip), vehicle: carboxymethylcellulose (CMC) 115 % of control | endpoint: mean survival time, dose: 200.0 mg/kg/injection, schedule: Q01DX001 (ip), vehicle: carboxymethylcellulose (CMC) 100 % of control | endpoint: mean survival time, dose: 400.0 mg/kg/injection, schedule: Q01DX001 (ip), vehicle: carboxymethylcellulose (CMC) 108 % of control

COc1cc(/C(C)=N/N=C(\C)c2ccc(O)c(OC)c2)ccc1O
inactive: [5] 94 % of control | [7] 90 % of control | [9] 90 % of control

C=C(C)C1CCC2(C(=O)O)CCC3(C)C(CCC4C5(C)CCC(O)C(C)(C)C5CCC43C)C12 (stereo unspecified)
inactive: [15] 104 % of control | [16] 97 % of control | [17] 96 % of control

CCCCCC(=O)CC(=O)c1cccs1
inactive: endpoint: mean survival time, dose: 200.0 mg/kg/injection, schedule: Q01DX Z (ip), vehicle: other 100 % of control | endpoint: mean survival time, dose: 400.0 mg/kg/injection, schedule: Q01DX Z (ip), vehicle: other 103 % of control

COCC1C2CC(=O)OC2C(I)C1OC(=O)c1ccc(-c2ccccc2)cc1 (stereo unspecified)
inactive: [15] 100 % of control | [16] 104 % of control | [17] 91 % of control

O=S(=O)(NCCCl)c1ccc(Br)cc1
inactive: endpoint: mean survival time, dose: 100.0 mg/kg/injection, schedule: Q01DX001 (ip), vehicle: other 101 % of control | [14] 95 % of control | endpoint: mean survival time, dose: 200.0 mg/kg/injection, schedule: Q01DX001 (ip), vehicle: other 90 % of control | [18] 103 % of control | endpoint: mean survival time, dose: 400.0 mg/kg/injection, schedule: Q01DX001 (ip), vehicle: other 101 % of control | [19] 97 % of control

CC(C)N(C(=O)Nc1cc([N+](=O)[O-])ccc1F)c1ccccc1
inactive: [15] 96 % of control | [16] 100 % of control | [17] 96 % of control

CCCCCCCCCCCCc1ccc(CSC(C(=O)OC)C(SCc2ccc(CCCCCCCCCCCC)cc2)C(=O)OC)cc1 (stereo unspecified)
inactive: [6] 103 % of control | [8] 101 % of control | [10] 94 % of control
